We go through seven compounds from article PMC11747885, “Potent inhibitors of the human RNA ligase Rlig1 highlights its role in RNA integrity maintenance under oxidative cellular stress” (Chemical Science, 2025).

Series [1] concerns the target T1, Rlig1-AMP (Homo sapiens, UniProt Q8N999).
T1 construct: made in house; host or cells: E. coli BL21 (DE3), pET15b-Rlig1
The series can be described thus: FRET-based high-throughput screening of inhibitors for Rlig1-AMP. It is filed as biochemical. Conditions: for 1-D Distance: difference of raw data w/o and w enzyme; for Raw data [w Enyzm]: with enzyme; for Raw data [w/o Enzym]: without enzyme.

For series [2] the following is noted: DMSO; ref MedChemExpress; cited from earlier work.
The conditions of series [3]: H2O; ultrasonic/warming; ref MedChemExpress; cited from earlier work.
The test system of the next series is HEK293 cells. The series can be described thus: Cell viability assay of HEK293 cells treated with inhibitors (CellTiter-Glo). The following applies: for cytotoxicity (in words): HEK293, 24 h, up to 30 μM; for pEC50: HEK293, 24 h compound, highest concentration 30 μM, n = 3; for IC50 (Figure 3D: EC50 values for plot; log(inhibitor) vs. response -- Variable slope (four parameters)) / LogIC50 (log(inhibitor) vs. response -- Variable slope (four parameters)): HEK293 cell viability, fit per plate (3 plates, 4 technical replicates each); for IC50 (Figure 3D: EC50 values for plot; log(inhibitor) vs. response -- Variable slope (four parameters)): highest tested concentration 30 µM; for LogIC50 (log(inhibitor) vs. response -- Variable slope (four parameters)): log of [µM].

For series [4], the target named is T2, human DNA ligase 1 (hLig1) (Homo sapiens, UniProt P18858).
T2 construct: made in house; host or cells: E. coli Rosetta BL21 (DE3), pET28a-hLig1
T2 sequence (P18858 whole entry): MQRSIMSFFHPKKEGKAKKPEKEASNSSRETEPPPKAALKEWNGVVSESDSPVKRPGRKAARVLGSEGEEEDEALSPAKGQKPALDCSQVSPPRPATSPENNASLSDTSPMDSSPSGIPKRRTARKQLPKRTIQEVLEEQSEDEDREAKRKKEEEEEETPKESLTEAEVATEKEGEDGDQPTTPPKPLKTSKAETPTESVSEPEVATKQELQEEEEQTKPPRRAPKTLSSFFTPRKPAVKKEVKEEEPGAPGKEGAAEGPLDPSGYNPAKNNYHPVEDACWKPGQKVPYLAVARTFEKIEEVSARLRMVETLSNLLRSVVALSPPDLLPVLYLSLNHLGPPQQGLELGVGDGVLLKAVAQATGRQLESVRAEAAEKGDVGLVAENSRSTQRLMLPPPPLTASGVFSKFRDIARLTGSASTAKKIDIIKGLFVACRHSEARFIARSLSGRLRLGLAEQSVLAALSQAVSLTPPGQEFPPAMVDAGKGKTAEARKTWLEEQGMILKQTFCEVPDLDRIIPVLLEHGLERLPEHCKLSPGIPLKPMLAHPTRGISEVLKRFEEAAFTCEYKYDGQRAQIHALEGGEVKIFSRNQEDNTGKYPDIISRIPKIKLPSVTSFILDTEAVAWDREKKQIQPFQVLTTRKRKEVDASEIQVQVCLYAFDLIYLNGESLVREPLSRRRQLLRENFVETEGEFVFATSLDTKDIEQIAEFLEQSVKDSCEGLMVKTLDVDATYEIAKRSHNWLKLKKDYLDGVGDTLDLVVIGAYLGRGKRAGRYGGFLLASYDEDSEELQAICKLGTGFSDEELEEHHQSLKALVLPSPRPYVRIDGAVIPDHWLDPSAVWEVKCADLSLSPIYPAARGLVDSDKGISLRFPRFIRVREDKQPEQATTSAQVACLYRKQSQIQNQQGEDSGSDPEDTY
In words: DNA ligation assay with various hLig1 concentration at constant inhibitor concentration. Conditions: 30 min 37 °C; for DNA product formation: 10 µM compound, three replicates. The series is classed as biochemical.

Series [5] addresses T1, Rlig1-AMP. In words: Radioactive RNA ligation assay (hit validation, 10 µM test and IC50 determination). Conditions: for inhibition of Rlig1-AMP ligation (urea-PAGE): 10 μM compound; for pIC50: n = 3; for percentage inhibition (dose response curve for IC50): replicates I-III; for LogIC50 (best-fit value): log of µM; for Bottom (best-fit value) / Top (best-fit value): log(inhibitor) vs. response, variable slope (four parameters). The series is classed as biochemical.

The conditions of series [6]: in DMSO; ref MedChemExpress; cited from earlier work.
Setting [7] is: four-parameter fit, read-out: IC50 (best-fit value).
Setting [8] is: radioactive ligation assay, 500 nM Rlig1-AMP, 20 min 37 °C, read-out: IC50.

By solubility is commonly meant how much of the substance goes into solution per volume. As a reminder, the pEC50 is the negative decadic logarithm of the EC50, by convention in mol/L. By pIC50 is commonly meant −log10 of the IC50, conventionally taken in molar units.

pEC50, pIC50: −log10 of the molar value. Values joined by “and” are separate entries in the source; they are usually repeats but may differ in a detail not shown here. Equal values may be shown once. “Also recorded” adds a separate entry of the source. Read-outs that look alike come from different tables or passages of the source.

T1 sequence (Q8N999 whole entry): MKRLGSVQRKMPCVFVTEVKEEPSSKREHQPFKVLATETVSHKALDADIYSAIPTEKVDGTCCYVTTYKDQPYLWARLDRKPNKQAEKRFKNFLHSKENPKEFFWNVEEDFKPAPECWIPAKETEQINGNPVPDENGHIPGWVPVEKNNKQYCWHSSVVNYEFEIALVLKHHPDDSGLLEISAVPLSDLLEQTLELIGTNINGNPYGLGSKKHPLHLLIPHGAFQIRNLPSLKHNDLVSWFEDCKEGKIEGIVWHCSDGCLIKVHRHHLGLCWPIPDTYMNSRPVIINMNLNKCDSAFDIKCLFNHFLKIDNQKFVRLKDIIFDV

For the compound `O=C1c2ccccc2C(=O)c2c1cc(S(=O)(=O)Nc1ccc(C(F)(F)F)cc1)c(O)c2O` [PGMI-004A], on Rlig1-AMP [1] (HTS hits), the “1-D Distance” value stood at 1480 and the “Raw data [w Enyzm]” value is 2222. For the same compound, the “1-D Distance.npi” value on Rlig1-AMP [1] (HTS hits, normalized value (npi)) is listed as 78.7935. Further, the solubility in series [2] is ≥ 125 mg/mL and ≥ 269.76 mM.
Turning to Heparin (Lithium salt), in series [3], the “solubility, H2O” value is given as “H2O : 100 mg/mL (Need ultrasonic)”. Also, on Rlig1-AMP [1] (HTS hits), the “1-D Distance” value was determined as 1112, the “Raw data [w Enyzm]” value amounted to 12003 and the “Raw data [w/o Enzym]” value is listed as 13115. Moreover, the “1-D Distance.npi” value at Rlig1-AMP [1] (HTS hits, normalised value of 1-D Distance) is 83.0264.
As to `Nc1nc(Nc2ccc(NC(=O)c3ccc(Nc4ccnc5ccccc45)cc3)cc2)cc(C(F)(F)F)n1` [Compound 41], the “cytotoxicity (in words)” value in the series on HEK293 cells was “comparatively high cytotoxicity”. Also, in the series on HEK293 cells, the pEC50 is 5.25. Further, in the series with HEK293 cells, the “IC50 (Figure 3D: EC50 values for plot; log(inhibitor) vs. response -- Variable slope (four parameters))” value was 5.211 µM and 5.311 µM and 6.697 µM. In addition, the “LogIC50 (log(inhibitor) vs. response -- Variable slope (four parameters))” value in the series with HEK293 cells is 0.717 and 0.7252 and 0.8259. In addition, the “effect on hLig1 activity (in words)” value in series [4] (10 μM compound, hLig1 titrated (500 nM to 31.3 nM)) is “least impact on hLig1 activity”. In addition, the DNA product formation was 32.8195% and 34.8543% and 48.0642% in series [4] (hlig1 0.0315 µM); 59.0993% and 56.4484% and 66.8349% in series [4] (hlig1 0.0625 µM); 87.3568% and 90.1164% and 79.5057% in series [4] (hlig1 0.5 µM). Also, the “inhibition of Rlig1-AMP ligation (urea-PAGE)” value at Rlig1-AMP [5] (500 nM Rlig1-AMP, 20 min 37 °C) is given as “Ligation was inhibited; also recorded: fully inhibited”. Also, the “HillSlope (best-fit value)” value on Rlig1-AMP [5] (four-parameter fit) is recorded as 6.706. In addition, the “Span (best-fit value)” value on Rlig1-AMP [5] (four-parameter fit) is listed as 91.68. The pIC50 on Rlig1-AMP [5] (setting [7]) and on Rlig1-AMP [5] (setting [8]) was 5.10 in each case. Moreover, the “percentage inhibition (dose response curve for IC50)” value (“percentage inhibition” below) on Rlig1-AMP [5] (log Compound [µM] 0.273001) was 1.895 and 15.4708 and 0.5134; on Rlig1-AMP [5] (log Compound [µM] 0.574031) it was 11.1208 and 11.2726 and 0; at Rlig1-AMP [5] (log Compound [µM] 0.875061), 30.9538 and 51.1087 and 45.619; at Rlig1-AMP [5] (log Compound [µM] 1.17609), 95.8601 and 98.8258 and 95.9476; on Rlig1-AMP [5] (log Compound [µM] 1.47712), 93.067 and 100 and 99.7336; at Rlig1-AMP [5] (log Compound [µM] -0.0280287), 9.18 and 3.83 and 4.351. The “percentage inhibition” value at Rlig1-AMP [5] (log Compound [µM] -0.329059) is 8.319 and 4.077 and 3.842; at Rlig1-AMP [5] (log Compound [µM] -0.630089), 9.025 and 10.4021 and 1.823. In addition, the “LogIC50 (best-fit value)” value at Rlig1-AMP [5] (four-parameter fit) is listed as 0.9022. Besides, the “Bottom (best-fit value)” value on Rlig1-AMP [5] is 6.221. Also, the “Top (best-fit value)” value on Rlig1-AMP [5] amounted to 97.9.
Consider `CNc1nccc(Nc2ccc(NC(=O)c3ccc(Nc4ccnc5ccccc45)cc3)cc2)n1` [Compound 42], for which the “cytotoxicity (in words)” value in the series on HEK293 cells is “comparatively high cytotoxicity”. For the same compound, the pEC50 in the series with HEK293 cells was 5.45. Further, in the series with HEK293 cells, the “IC50 (Figure 3D: EC50 values for plot; log(inhibitor) vs. response -- Variable slope (four parameters))” value was 3.237 µM and 3.382 µM and 4.036 µM. For the same compound, the “LogIC50 (log(inhibitor) vs. response -- Variable slope (four parameters))” value in the series with HEK293 cells was 0.5101 and 0.5292 and 0.6059. For the same compound, the DNA product formation in series [4] (hlig1 0.0315 µM) is 8.9605% and 14.7712% and 28.5706%; in series [4] (hlig1 0.0625 µM), 20.859% and 38.2979% and 41.6376%; in series [4] (hlig1 0.5 µM), 72.119% and 74.3311% and 77.4812%. Further, the “inhibition of Rlig1-AMP ligation (urea-PAGE)” value on Rlig1-AMP [5] (500 nM Rlig1-AMP, 20 min 37 °C) is “Ligation was inhibited; also recorded: fully inhibited”. In addition, at Rlig1-AMP [5] (four-parameter fit), the “HillSlope (best-fit value)” value was 5.584. Further, at Rlig1-AMP [5] (four-parameter fit), the “Span (best-fit value)” value is reported as 91.59. The pIC50 at Rlig1-AMP [5] (setting [7]) and on Rlig1-AMP [5] (setting [8]) was 5.48 in each case. For the same compound, the “percentage inhibition” value is 16.0159 and 7.852 and 10.1751 at Rlig1-AMP [5] (log Compound [µM] 0.273001); 79.3655 and 83.1907 and 44.7582 on Rlig1-AMP [5] (log Compound [µM] 0.574031); 100 and 98.6279 and 97.3725 at Rlig1-AMP [5] (log Compound [µM] 0.875061); 100 (2×) and 92.704 on Rlig1-AMP [5] (log Compound [µM] 1.17609); 100 on Rlig1-AMP [5] (log Compound [µM] 1.47712); 9.717 and 4.5039 and 9.184 on Rlig1-AMP [5] (log Compound [µM] -0.0280287). Also, the “percentage inhibition” value on Rlig1-AMP [5] (log Compound [µM] -0.329059) was 6.426 and 0 and 5.66; on Rlig1-AMP [5] (log Compound [µM] -0.630089), 11.6754 and 8.294 and 11.6155. Moreover, the “LogIC50 (best-fit value)” value at Rlig1-AMP [5] (four-parameter fit) is listed as 0.5177. Moreover, the “Bottom (best-fit value)” value at Rlig1-AMP [5] was determined as 7.458. Moreover, the “Top (best-fit value)” value on Rlig1-AMP [5] is given as 99.05.
Take `COC(=O)/C=C/c1ccc(O)c(O)c1` [Methyl caffeate]: at Rlig1-AMP [1] (sheet HTS hits), the “1-D Distance” value is reported as 1343, the “Raw data [w Enyzm]” value was determined as 9476 and the “Raw data [w/o Enzym]” value is given as 10819. Also, the “solubility, DMSO” value in series [6] was “DMSO : 33.33 mg/mL (171.64 mM; ultrasonic and warming and heat to 60°C)”.
Turning to `CCOc1ccccc1OCCN[C@H](C)Cc1ccc(OC)c(S(N)(=O)=O)c1` [Tamsulosin], at Rlig1-AMP [1] (sheet HTS hits), the “1-D Distance” value turned out to be 1837, the “Raw data [w Enyzm]” value was 8934 and the “Raw data [w/o Enzym]” value stood at 10771. Further, the “solubility, DMSO” value in series [6] is “DMSO : 100 mg/mL (244.79 mM; Need ultrasonic)”.
For `C[C@]12C=CC(=O)N[C@@H]1CC[C@@H]1[C@@H]2CC[C@]2(C)[C@@H](C(=O)Nc3cc(C(F)(F)F)ccc3C(F)(F)F)CC[C@@H]12` [Dutasteride], at Rlig1-AMP [1] (sheet HTS hits), the “1-D Distance” value is recorded as 1706, the “Raw data [w Enyzm]” value was 9054 and the “Raw data [w/o Enzym]” value was 10760. Moreover, the “solubility, DMSO” value in series [6] is “DMSO : 33.33 mg/mL (63.06 mM; Need ultrasonic)”.
